Results on three molecules are retold here after patent publication US10821079B2, “PKC activators and combinations thereof” (Cognitive Research Enterprises, Inc., priority 2011, dated 2020).

One assay addresses PKCα (Homo sapiens, UniProt P17252). In words: Activation of purified PKC isozymes, radiometric: PKC-α. It is filed as biochemical. The procedure:
To measure PKC activity, 10 μg of protein from either cytosol or membrane was incubated for 15 min at 37° C. in the presence of 10 μM histones, 4.89 mM CaCl2, 1.2 μg/μl phosphatidyl-L-serine, 0.18 μg/μl 1,2-dioctanoyl-sn-glycerol, 10 mM MgCl2, 20 mM HEPES (pH 7.4), 0.8 mM EDTA, 4 mM EGTA, 4% glycerol, 8 μg/ml aprotinin, 8 μg/ml leupeptin, 2 mM benzamidine, and 0.5 μCi of [γ-^32P]ATP. [^32P]Phosphoprotein formation was measured by adsorption onto phosphocellulose as described previously. See Nelson et al. (2009) J Biol Chem 284, 34514-34521. For measurements of activation by RA, PKC activity was measured in the absence of diacylglycerol (DAG) and phosphatidylserine, as described by Nelson et al. (2009) J Biol Chem 284, 34514-34521. PKC-δ and PKC-ε were measured in the absence of added EGTA and CaCl^2, as described by Kanno et al. (2006) J Lipid Res 47, 1146-1156. The enzyme was provided as a purified isozyme for in vitro experiments.
To measure PKC, 10 μl of cell homogenate or purified PKC isoform was incubated for 15 min at 37° C. in the presence of 10 μM histones, 4.89 mM CaCl2, 1.2 μg/μl phosphatidyl-L-serine, 0.18 μg/μl 1,2-dioctanoyl-sn-glycerol, 10 mM MgCl2, 20 mM HEPES (pH 7.4), 0.8 mM EDTA, 4 mM EGTA, 4% glycerol, 8 μg/ml aprotinin, 8 μg/ml leupeptin, and 2 mM benzamidine. [γ32P]ATP (0.5 μCi) was added and 32P-phosphoprotein formation was measured by adsorption onto phosphocellulose as described previously. See Nelson et al., J. Neurochemistry, 1995, 65: 2350-2357.
PKC activity of each compound was measured in the absence of diacylglycerol and phosphatidylserine and PKC-δ and PKC-ε were measured in the absence of added EGTA and CaCl2, as described by Kanno et al., J. Lipid Res., 2006, 47: 1146-1156. Low concentrations of Ca^2+ were needed because high Ca^2+ can interact with the PKC phosphatidylserine binding site and prevents activation. […] To determine their PKC isoform specificity, the compounds were pre-incubated with purified isoforms of PKC for five minutes and the PKC activity was measured radiometrically.
The activation and PKC isozyme specificity of DCPLA-ethyl ester was measured following the procedures in Example 1(B) and (C), except that 9 ng of the purified isozyme was used and it was pre-incubated for 5 minutes at room temperature (FIG. 3). PKC-ε activation by DCPLA-tert-butyl ester and DCPLA-retinyl ester was measured in the same manner as DCPLA-ethyl ester (FIG. 3).

Assay [1] relates to rat hippocampal primary neurons. In words: Synaptic marker immunofluorescence in rat hippocampal primary neurons. It is filed as cell-based. The conditions noted are these: 50 nM ASPD alone (ASPD) or with 100 nM DCPLA-ME, 20 hr. The procedure: Cells were grown in two chambered slides (Nunc, USA) at low density. For immunofluorescence staining, the cells were washed with PBS (pH 7.4) and fixed with 4% paraformaldehyde for 4 min. Following fixation, the cells were blocked and permeabilized with 5% serum and 0.3% Triton X 100 in 1×PBS for 30 min. The cells were washed three times with 1×PBS and incubated with primary antibodies for 1 hr at 1:100 dilution. The incubation slides were then washed again three times in 1×PBS and were incubated with the FITC anti-rabbit IgG and Rhodamine anti-mouse IgG for 1 hr at 1:400 dilution. The cells were further washed and treated with DAPI (4′,6-diamidino-2′-phenylindole, dihydrochloride) (Thermo Scientific, USA) to stain the nucleus. Finally, the slides were washed and mounted in Pro Long Gold antifade mounting solution (Invitrogen, USA) and were viewed under the LSM 710 Meta confocal microscope (Zeiss) at 350 nm, 490 nm, and 540 nm excitation and 470 nm, 525 nm, and 625 nm emission for DAPI, FITC, and Rhodamine respectively. Six individual fields at 63× oil lens magnification were analyzed for the mean fluorescence intensity (MFI) in each channel. The co-localization correlation generated by the ZEN software (Zeiss).
To estimate the synaptic damage caused by the ASPDs on primary hippocampal neurons, the expression of synaptophysin (a presynaptic marker) and PSD-95 (a postsynaptic marker) was measured by immunofluorescence staining. […] Following a 20 hr incubation period, the cells were stained for nucleus, PSD-95, and synaptophysin. Expression levels were calculated as the change of percentage in mean fluorescence intensity compared to untreated cells.
Primary neurons, treated and untreated, were immunostained for MAP-2, synaptophysin, and PSD-95 to determine the synaptic integrity. […] Following a 20 hr incubation period, the cells were stained for MAP-2, PSD-95, and synaptophysin as described above.

The subject of another assay is PKC-α. Kind of assay: PKC-α translocation to membrane in SH-SY5Y cells (Western blot). The conditions noted are these: 0.27 nM, 0-60 min. It is filed as cell-based, human. The procedure:
Cells were harvested in homogenizing buffer containing 10 mM Tris-Cl (pH 7.4), 1 mM PMSF (phenylmethylsulfonyl fluoride), 1 mM EGTA, 1 mM EDTA, 50 mM NaF, and 20 μM leupeptin and were lysed by sonication. The homogenate was centrifuged at 100,000×g for 15 min at 4° C. to obtain the cytosolic fraction (supernatant) and membrane (pellet). The pellet was resuspended in the homogenizing buffer by sonication. Protein concentration was measured using the Coomassie Plus (Bradford) Protein Assay kit (Pierce, USA). Following quantification, 20 μg of protein from each sample was subjected to SDS-PAGE analysis in 4-20% gradient Tris-Glycine gel (Invitrogen, USA). The separated protein was then transferred to nitrocellulose membrane. The membrane was blocked with BSA at room temperature for 15 min and was incubated with primary antibody over night at 4° C. […] Western Blot was imaged in the ImageQuant RT-ECL (GE Life Sciences, Piscataway, N.J.) and densitometric quantification was performed using the IMAL software (Blanchette Rockefeller Neurosciences Institute, Morgantown, W. Va.). […]
Equal amounts of proteins were loaded in each lane (20 μg) for both the cytosol and membrane fractions. Activation of PKC was calculated as the percentage of total PKC in the membrane (membrane/cytosol+membrane).

With `CC1=C(/C=C/C(C)=C/C=C/C(C)=C/C(=O)O)C(C)(C)CCC1` [RA, All-trans retinoic acid], on PKCα, the “effect on PKC-α (in words)” value is recorded as “not activated”.
With `CCCCCC1CC1CC1CC1CCCCCCCC(=O)OC` (stereo not drawn) [DCPLA-ME, methyl 8-(2-((2-pentylcyclopropyl)methyl)cyclopropyl)octanoate], the “effect on PKC-α (in words)” value on PKCα is listed as “did not have a major effect”. For the same molecule, in assay [1], the “MAP-2 expression (mean fluorescence intensity)” value is on record as 68.87±2.0%, the “PSD-95 expression (mean fluorescence intensity)” value was determined as 99.2±11.3% and the “synaptophysin expression (mean fluorescence intensity)” value came to 87.48±3.75%.
With `CCC/C=C/C=C/C(=O)O[C@H]1/C(=C/C(=O)OC)C[C@H]2C[C@H]([C@@H](C)O)OC(=O)C[C@H](O)C[C@@H]3C[C@H](OC(C)=O)C(C)(C)C(O)(C[C@@H]4C/C(=C/C(=O)OC)C[C@H](/C=C/C(C)(C)[C@]1(O)O2)O4)O3` [Bryostatin-1], in the assay on PKC-α, the “PKC-α translocation over time (in words)” value is on record as “came down to baseline at 60 min”.
